In brackets after ≈: the same amount, converted by molar mass. Entries after “also recorded” stand apart in the source; their conditions may differ. Read-outs that look alike come from different tables or passages of the source.
Legend:
[1] = system: Herpes Simplex Virus Type 1, Strain 377; test: antiviral activity vs herpes simplex virus type 1 (virus-induced cytopathogenic effects in host cells); format: cell-based; settings: for VR (Virus Rating): VR ≥1 indicates definite antiviral activity, 0.5-0.9 marginal to moderate; for EC50: Human alphaherpesvirus 1, Vero, read-out: MIC50 (concentration for 50% inhibition of virus-induced cytopathogenic effects); for antiviral activity against HSV-1 (in words): comparisons are with Ara-A (positive control)
Experimental: (§1) Certain representatives of Formulas V-VIII have potent antiviral activity and may be useful for the treatment of virus-induced diseases. The antiviral activity of compounds represented by Formulas V-VIII was measured as a virus rating (VR), and the potency (MIC50) was determined as the concentration of the tested compound required to inhibit virus-induced cytopathogenic effects in host cells by 50%. Carbocyclic analogs of 2'-deoxyribofuranosides represented by Formulas V-VIII have unequivocal and generally high activity in inhibiting replication of both type 1 herpes simplex virus (HSV-1) and type 2 herpes simplex virus (HSV-2). […] Notable examples are the carbocyclic analogs of 2,6-diaminopurine 2'-deoxyribofuranoside (Example 5), 2'-deoxyguanosine (Example 6), 2'-deoxythioguanosine (Example 7), 2,6-diamino-8-azapurine 2'-deoxyribofuranoside (Example 9), and 2'-deoxy-8-azaguanosine (Example 10).
(§2) Carbocyclic analogs (Formulas (V-VIII) of 2'-deoxyribofuranoside derivatives of 2-amino-6-substituted-purines and of 2-amino-6-substituted-8-azapurines were tested for antiviral activity against viruses that replicate in mammalian cells growing in cell culture. The results of these tests against herpes simplex viruses are summarized in Table 1. The Virus Rating (VR) is a weighted measurement of antiviral activity determined by the method of Ehrlich et al., Annals of the New York Academy of Science, volume 130, pages 5-16, 1965. In tests carried out by this method, a VR of 0.5-0.9 indicates marginal to moderate antiviral activity, and a VR equal to or greater than 1 indicates definite antiviral activity. The higher the value of VR, the greater is the antiviral activity. The MIC50 (minimum inhibitory concentration, 50%) is the concentration of a test compound required for 50% inhibition of virus-induced cytopathogenic effects. The 2'-deoxyribofuranoside analogs of Examples 4-10 have unequivocal and selective antiviral activity against both type 1 and type 2 strains of herpes simplex virus.
(§3) ^a Antiviral evaluations were performed with HSV1 and HSV2 replicatin
(§4) either in secondary cultures of rabbit kidney cells or in Vero cells.
(§5) ^b 9D-Arabinofuranosyladenine was tesed as a positive control; the
(§6) range of values of VR and MIC50 came from several tests with either
(§7) rabbit kidney cells or Vero cells as the host cells.

[2] = system: Herpes Simplex Virus Type 2, Strain MS; test: antiviral activity vs herpes simplex virus type 2 (virus-induced cytopathogenic effects in host cells); format: cell-based; settings: for VR (Virus Rating): VR ≥1 indicates definite antiviral activity, 0.5-0.9 marginal to moderate; for EC50: read-out: MIC50 (concentration for 50% inhibition of virus-induced cytopathogenic effects); for antiviral activity against HSV-2 (in words): comparisons are with Ara-A (positive control)
Experimental: as §1, §2, §3, §4, §5, §6, §7

[3] = HSV-1 strain 377, rabbit kidney cells or Vero cells
[4] = HSV-2 strain MS, rabbit kidney cells or Vero cells
[5] = Human alphaherpesvirus 2, HSV-2 strain MS, rabbit kidney cells or Vero cells

SMILES | VR (Virus Rating) [1, 3] | EC50 [1, 3] | VR (Virus Rating) [2, 4] | EC50 [2, 5] | antiviral activity against HSV-1 (in words) [1] | MIC50 (concentration for 50% inhibition of virus-induced cytopathogenic effects) [1, 3] | antiviral activity against HSV-2 (in words) [2] | EC50 [1] | EC50 ([2]; Human alphaherpesvirus 2, Vero)
Nc1nc(Cl)c2ncn([C@@H]3C[C@H](CO)[C@@H](O)C3)c2n1 (relative stereo) [Example 4, (1α, 2β, 4α)-4-(2-Amino-6-chloro-9H-purin-9-yl)-2-hydroxycyclopentanemethanol] | 1.9 | 8.1 µg/mL (≈ 28.5 µM) | 2.0 | 37 µg/mL (≈ 130 µM) |  |  |  |  | 
Nc1nc(N)c2ncn([C@@H]3C[C@H](CO)[C@@H](O)C3)c2n1 (relative stereo) [Example 5, (1α, 2β, 4α)-4-(2,6-Diamino-9H-purin-9-yl)-2-hydroxycyclopentanemethanol] |  | 0.6 µg/mL (≈ 2.27 µM) | 2.9 | 2.4 µg/mL (≈ 9.08 µM) | more active (VR=4-5) and more potent (lower MIC50) | 0.3 µg/mL | equivalent or superior in activity and potency to Ara-A; also recorded: markedly more effective than was Ara-A |  | 
Nc1nc2c(ncn2[C@@H]2C[C@H](CO)[C@@H](O)C2)c(=O)[nH]1 (relative stereo) [Example 6, 2-Amino-1,9-dihydro-9-[(1α, 3β, 4α)-3-hydroxy-4-(hydroxymethyl)cyclopentyl]-6H-purin-6-one] | ≥ 4.6 | < 0.3 µg/mL | 3.7 | 0.8 µg/mL (≈ 3.02 µM) | more active (VR=4-5) and more potent (lower MIC50) |  | equivalent or superior in activity and potency to Ara-A; also recorded: markedly more effective than was Ara-A |  | 
Nc1nc2c(ncn2[C@@H]2C[C@H](CO)[C@@H](O)C2)c(=S)[nH]1 (relative stereo) [Example 7] |  | < 3.2 µg/mL | 1.7 | 32 µg/mL (≈ 114 µM) | more active (VR=4-5) and more potent (lower MIC50) | 1.8 µg/mL |  |  | 
Nc1nc(Cl)c2nnn([C@@H]3C[C@H](CO)[C@@H](O)C3)c2n1 (relative stereo) [Example 8, (1α, 2β, 4α)-4-(5-Amino-7-chloro-3H-1,2,3-triazolo[4,5-d]pyrimidin-3-yl)-2-hydroxycyclopentanemethanol] |  | < 1 µg/mL | 1.9 | 23 µg/mL (≈ 80.8 µM) |  | 1.6 µg/mL |  |  | 
Nc1nc(N)c2nnn([C@@H]3C[C@H](CO)[C@@H](O)C3)c2n1 (relative stereo) [Example 9, (1α, 2β, 4α)-4-(5,7-Diamino-3H-1,2,3-triazolo[4,5-d]pyrimidin-3-yl)-2-hydroxycyclopentanemethanol] |  | < 3.2 µg/mL | 2.3 | 10 µg/mL (≈ 37.7 µM) | more active (VR=4-5) and more potent (lower MIC50); also recorded: much more effective against HSV-1 than was Ara-A | 2.0 µg/mL | equivalent or superior in activity and potency to Ara-A; also recorded: at least as effective as Ara-A against HSV-2 |  | 
Nc1nc2c(nnn2[C@@H]2C[C@H](CO)[C@@H](O)C2)c(=O)[nH]1 (relative stereo) [Example 10, 5-Amino-3,6-dihydro-3-[(1α, 2β, 4α)-3-hydroxy-4-(hydroxymethyl)cyclopentyl]-7H-1,2,3-triazolo[4,5-d]pyrimidin-7-one] | 4.2 | 0.6 µg/mL (≈ 2.25 µM) | 2.1 | 6.9 µg/mL (≈ 25.9 µM) | more active (VR=4-5) and more potent (lower MIC50); also recorded: much more effective against HSV-1 than was Ara-A |  | equivalent or superior in activity and potency to Ara-A; also recorded: at least as effective as Ara-A against HSV-2 |  | 
Nc1ncnc2c1ncn2[C@@H]1O[C@H](CO)[C@@H](O)[C@@H]1O [Ara-A, 9D-Arabinofuranosyladenine, reference compound] | 2.5-3.1 |  | 1.6-2.3 |  |  |  |  | 6.4 to 9.8 µg/mL (≈ 23.9 to 36.7 µM) | 6.4 to 30 µg/mL (≈ 23.9 to 112 µM)

Reference: US4543255A, “Carbocyclic analogs of purine 2'-deoxyribofuranosides” (Southern Research Institute, priority 1984, dated 1985)
